The values below come from patent US20100204203A1, “Chemical Compounds 637: Pyridopyrimidinediones as PDE4 Inhibitors” (priority 2007, published 2010).

The target in this assay is recombinant Human Phosphodiesterase B2 (PDE4B2) (Homo sapiens, UniProt Q07343). Kind of assay: Human Phosphodiesterase B2 Radiometric Assay (yttrium silicate SPA beads, [3H]cyclic AMP). Format: biochemical. The following applies: recombinant human PDE4B2, radiometric SPA assay, 8 nM [3H]cyclic AMP; read-out: PDE4B2 pIC50 (converted). In short, it runs like this: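 Compounds were preincubated 30 min at 30 °C with 0.1 mg/mL PDE4B2 in 50 mM HEPES pH 7.5, 8.3 mM MgCl2, 1.7 mM EGTA, 0.01% Brij 35. Then 8 nM [3H]cAMP was added for 20 min, stopped with yttrium silicate SPA beads plus 18 mM ZnSO4 capturing product 5′AMP; pIC50 by curve fitting.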
Chain of recombinant Human Phosphodiesterase B2 (PDE4B2) (Q07343 1-564 isoform Q07343-2): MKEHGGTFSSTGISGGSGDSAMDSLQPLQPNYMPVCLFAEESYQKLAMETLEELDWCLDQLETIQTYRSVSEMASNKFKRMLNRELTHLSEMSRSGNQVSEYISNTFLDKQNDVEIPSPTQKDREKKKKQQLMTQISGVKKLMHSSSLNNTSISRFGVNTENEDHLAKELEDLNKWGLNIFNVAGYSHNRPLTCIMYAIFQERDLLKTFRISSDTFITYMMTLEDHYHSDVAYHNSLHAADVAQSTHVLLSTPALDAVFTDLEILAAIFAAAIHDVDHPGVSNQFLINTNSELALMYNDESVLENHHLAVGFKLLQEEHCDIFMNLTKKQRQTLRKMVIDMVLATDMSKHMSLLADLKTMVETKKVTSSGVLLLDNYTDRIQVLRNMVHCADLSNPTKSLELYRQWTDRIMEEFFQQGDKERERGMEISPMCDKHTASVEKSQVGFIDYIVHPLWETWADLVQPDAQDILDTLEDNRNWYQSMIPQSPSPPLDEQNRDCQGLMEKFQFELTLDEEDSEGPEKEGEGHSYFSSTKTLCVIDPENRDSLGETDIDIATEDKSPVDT

As for `CC(=O)n1cc(CN(Cc2cn(C(C)=O)c3ccccc23)[C@H]2CC[C@@H](n3c(=O)c4cc(F)cnc4n(-c4cccc(-c5ccc(CN6CCN(C(C)C)CC6)cc5)c4)c3=O)CC2)c2ccccc21` [Example 341, 3-(cis-4-{bis[(1-acetyl-1H-indol-3-yl)methyl]amino}cyclohexyl)-6-fluoro-1-{4′-[(4-isopropylpiperazin-1-yl)methyl]biphenyl-3-yl}pyrido[2,3-d]pyrimidine-2,4(1H,3H)-dione], the IC50 was 0.501 nM. For the molecule `CC(C)NCCOc1ccc(-c2cccc(-n3c(=O)n([C@H]4CC[C@@H](NC(=O)c5cn6cc(F)ccc6n5)CC4)c(=O)c4cc(F)cnc43)c2)cc1` [Example 342], the IC50 was 0.0316 nM. For `CN(C)Cc1ccc(-c2cccc(-n3c(=O)n([C@H]4CC[C@@H](NCc5cn6ccccc6n5)CC4)c(=O)c4cc(F)cnc43)c2)cc1` [Example 343, 1-{4′-[(dimethylamino)methyl]biphenyl-3-yl}-6-fluoro-3-{cis-4-[(imidazo[1,2-a]pyridin-2-ylmethyl)amino]cyclohexyl}pyrido[2,3-d]pyrimidine-2,4(1H,3H)-dione], the IC50 is 2 nM. In the case of `NC1(C(=O)N[C@H]2CC[C@@H](n3c(=O)c4cc(F)cnc4n(-c4cccc(-c5ccccc5)c4)c3=O)CC2)CC1` [Example 344, 1-amino-N-[cis-4-(1-biphenyl-3-yl-6-fluoro-2,4-dioxo-1,4-dihydropyrido[2,3-d]pyrimidin-3(2H)-yl)cyclohexyl]cyclopropanecarboxamide], the IC50 was 0.398 nM. As to `O=C(N[C@H]1CC[C@@H](n2c(=O)c3cc(F)cnc3n(-c3cccc(-c4ccc(CC5CCNCC5)cc4)c3)c2=O)CC1)c1cn2cc(F)ccc2n1` [Example 345, 6-fluoro-N-{cis-4-[6-fluoro-2,4-dioxo-1-[4′-(piperidin-4-ylmethyl)biphenyl-3-yl]-1,4-dihydropyrido[2,3-d]pyrimidin-3(2H)-yl]cyclohexyl}imidazo[1,2-a]pyridine-2-carboxamide], the IC50 is 0.0316 nM. As for `O=c1c2cc(F)cnc2n(-c2cccc(-c3cccc(O)c3CN3CCOCC3)c2)c(=O)n1[C@H]1CC[C@@H](NCc2cn3cc(F)ccc3n2)CC1` [Example 346, 6-Fluoro-3-(cis-4-{[(6-fluoroimidazo[1,2-a]pyridin-2-yl)methyl]amino}cyclohexyl)-1-[3′-hydroxy-2′-(morpholin-4-ylmethyl)biphenyl-3-yl]pyrido[2,3-d]pyrimidine-2,4(1H,3H)-dione], the IC50 is 0.126 nM. For the molecule `Cc1cc(C(=O)N[C@H]2CC[C@@H](n3c(=O)c4cc(F)cnc4n(-c4cccc(-c5ccc(O)cc5CN(C)C)c4)c3=O)CC2)nn1C` [Example 348, N-{cis-4-[1-{2′-[(dimethylamino)methyl]-4′-hydroxybiphenyl-3-yl}-6-fluoro-2,4-dioxo-1,4-dihydropyrido[2,3-d]pyrimidin-3(2H)-yl]cyclohexyl}-1,5-dimethyl-1H-pyrazole-3-carboxamide], the IC50 is 0.0251 nM. Consider `Cc1nc(C(=O)N[C@H]2CC[C@@H](n3c(=O)c4cc(F)cnc4n(-c4cccc(-c5ccc(CN6CCCNCC6)cc5)c4)c3=O)CC2)cs1` [Example 349, N-{cis-4-[1-[4′-(1,4-diazepan-1-ylmethyl)biphenyl-3-yl]-6-fluoro-2,4-dioxo-1,4-dihydropyrido[2,3-d]pyrimidin-3(2H)-yl]cyclohexyl}-2-methyl-1,3-thiazole-4-carboxamide], for which the IC50 is 0.02 nM. `O=C(N[C@H]1CC[C@@H](n2c(=O)c3cc(F)cnc3n(-c3cccc(-c4ccc(CN5CCCNCC5)cc4)c3)c2=O)CC1)c1ccc2ccccc2n1` [Example 350, N-{cis-4-[1-[4′-(1,4-diazepan-1-ylmethyl)biphenyl-3-yl]-6-fluoro-2,4-dioxo-1,4-dihydropyrido[2,3-d]pyrimidin-3(2H)-yl]cyclohexyl} quinoline-2-carboxamide]: the IC50 is 0.0158 nM. Under `CCCCc1ccc(C(=O)N[C@H]2CC[C@@H](n3c(=O)c4cc(F)cnc4n(-c4cccc(-c5ccc(CN6CCCNCC6)cc5)c4)c3=O)CC2)nc1` [Example 351, 5-butyl-N-{cis-4-[1-[4′-(1,4-diazepan-1-ylmethyl)biphenyl-3-yl]-6-fluoro-2,4-dioxo-1,4-dihydropyrido[2,3-d]pyrimidin-3(2H)-yl]cyclohexyl}pyridine-2-carboxamide] stands 0.0316 nM. `O=C(N[C@H]1CC[C@@H](n2c(=O)c3cc(F)cnc3n(-c3cccc(-c4ccc(CN5CCCNCC5)cc4)c3)c2=O)CC1)c1cnc2ccccc2n1` [Example 352, N-{cis-4-[1-[4′-(1,4-diazepan-1-ylmethyl)biphenyl-3-yl]-6-fluoro-2,4-dioxo-1,4-dihydropyrido[2,3-d]pyrimidin-3(2H)-yl]cyclohexyl} quinoxaline-2-carboxamide]: the IC50 was 0.0158 nM. Under `O=C(N[C@H]1CC[C@@H](n2c(=O)c3cc(F)cnc3n(-c3cccc(-c4ccc(CN5CCCNCC5)cc4)c3)c2=O)CC1)c1cc2ccccc2cn1` [Example 353, N-{cis-4-[1-[4′-(1,4-diazepan-1-ylmethyl)biphenyl-3-yl]-6-fluoro-2,4-dioxo-1,4-dihydropyrido[2,3-d]pyrimidin-3(2H)-yl]cyclohexyl} isoquinoline-3-carboxamide] stands 0.0316 nM. For the molecule `O=C(N[C@H]1CC[C@@H](n2c(=O)c3cc(F)cnc3n(-c3cccc(-c4ccc(CN5CCCNCC5)cc4)c3)c2=O)CC1)c1nc2ccccc2[nH]1` [Example 354, N-{cis-4-[1-[4′-(1,4-diazepan-1-ylmethyl)biphenyl-3-yl]-6-fluoro-2,4-dioxo-1,4-dihydropyrido[2,3-d]pyrimidin-3(2H)-yl]cyclohexyl}-1H-benzimidazole-2-carboxamide], the IC50 is 0.0398 nM.

Regarding `O=C(N[C@H]1CC[C@@H](n2c(=O)c3cc(F)cnc3n(-c3cccc(-c4ccc(CN5CCCNCC5)cc4)c3)c2=O)CC1)c1cc(=O)c2ccccc2[nH]1` [Example 355, N-{cis-4-[1-[4′-(1,4-diazepan-1-ylmethyl)biphenyl-3-yl]-6-fluoro-2,4-dioxo-1,4-dihydropyrido[2,3-d]pyrimidin-3(2H)-yl]cyclohexyl}-4-oxo-1,4-dihydroquinoline-2-carboxamide], the IC50 is 0.0501 nM. Under `Cc1cccc(C(=O)N[C@H]2CC[C@@H](n3c(=O)c4cc(F)cnc4n(-c4cccc(-c5ccc(CN6CCCNCC6)cc5)c4)c3=O)CC2)n1` [Example 356, N-{cis-4-[1-[4′-(1,4-diazepan-1-ylmethyl)biphenyl-3-yl]-6-fluoro-2,4-dioxo-1,4-dihydropyrido[2,3-d]pyrimidin-3(2H)-yl]cyclohexyl}-6-methylpyridine-2-carboxamide] stands 0.0631 nM; under `Cc1nc(C(=O)N[C@H]2CC[C@@H](n3c(=O)c4cc(F)cnc4n(-c4cccc(-c5ccc(CN6CCC(N7CCCCC7)CC6)cc5)c4)c3=O)CC2)cs1` [Example 357, N-{cis-4-[1-[4′-(1,4′-bipiperidin-1′-ylmethyl)biphenyl-3-yl]-6-fluoro-2,4-dioxo-1,4-dihydropyrido[2,3-d]pyrimidin-3(2H)-yl]cyclohexyl}-2-methyl-1,3-thiazole-4-carboxamide], 0.0316 nM. Take `CN1CCCN(Cc2ccc(-c3cccc(-n4c(=O)n([C@H]5CC[C@@H](NC(=O)c6cnc7ccccc7n6)CC5)c(=O)c5cc(F)cnc54)c3)cc2)CC1` [Example 358, N-{cis-4-[6-fluoro-1-{4′-[(4-methyl-1,4-diazepan-1-yl)methyl]biphenyl-3-yl}-2,4-dioxo-1,4-dihydropyrido[2,3-d]pyrimidin-3(2H)-yl]cyclohexyl} quinoxaline-2-carboxamide]: the IC50 is 0.0126 nM.
